How the values were obtained:
[1] = UV absorption (λmax and ε) of the prepared UV-A screening compounds; assay type: physicochemical; conditions: UV absorption maximum; solvent not stated

| Structure (SMILES) | melting point [°C] | UV: λmax [1] [nm] |
| --- | --- | --- |
| CCCCC(CC)CN1C(C)=CC(=C(C#N)C#N)C=C1C (stereo not shown) [Example 5, 1-N-(2-ethylhexyl)-4-dicyanomethylene-2,6-dimethyl-1,4-dihydropyridine] | 187 | 372 |
| CCOC(=O)C(C#N)=C1C=C(C)OC(C)=C1 [Example 1, ethyl (2,6-dimethyl-pyran-4-ylidene) cyanoacetate] |  | 348 |
| CCCCC(CC)COC(=O)C(C#N)=C1C=C(C)OC(C)=C1 (stereo not shown) [Example 2, 2-ethylhexyl (2,6-dimethyl-pyran-4-ylidene) cyanoacetate] |  | 352 |
| CCCC1=C(CC)C(=C(C#N)C#N)C(CC)=C(CCC)O1 [Example 4, 2-(3,5-diethyl-2,6-dipropylpyran-4-ylidene)malononitrile] |  | 364 |
| CCCCC(CC)COC(=O)C(C#N)=C1C=C(C)N(CCCC)C(C)=C1 (stereo not shown) [Example 7, 2-ethylhexyl (1-N-butyl-2,6-dimethyl-1H-pyridin-4-ylidene)cyanoacetate] | 69 to 70 | 374 |
| CCCCC(CC)COCCCN1C(C)=CC(=C(C#N)C(=O)OCC(CC)CCCC)C=C1C (stereo not shown) [Example 8, 2-ethylhexyl (1-N-[3-(2-ethylhexyloxy)propyl]-2,6-di-methyl-1H-pyridin-4ylidene)cyanoacetate] | 69 to 70 | 366 |
| CCC1=C(C)C(=C(C#N)C#N)C(C)=C(CC)O1 [Example 3, 2-(2,6-diethyl-3,5-dimethylpyran-4-ylidene)malononitrile] | 64 to 65 | 366 |
| CCCCC(CC)COCCCN1C(C)=CC(=C(C#N)C#N)C=C1C (stereo not shown) [1-N-[3-(2-ethylhexyloxy)propyl]-4-dicyanomethylene-2,6-dimethyl-1,4-dihydropyridine] |  | 370 |
| CCCCCCCCCCCCN1C(C)=CC(=C(C#N)C#N)C=C1C [1-N-dodecyl-4-dicyanomethylene-2,6-dimethyl-1,4-dihydropyridine] |  | 370 |

Continued, values first:

| melting point [°C] | UV: λmax [1] [nm] | Structure (SMILES) |
| --- | --- | --- |
| 138 to 139 | 372 | CC1=CC(=C(C#N)C#N)C=C(C)N1CCCOCCOCCOCCCN1C(C)=CC(=C(C#N)C#N)C=C1C [Example 9, 2-{1-[3-(2-{2-[3-(4-dicyanomethylene-2,6-dimethyl-4H-pyridin-1-yl)-propoxy]-ethoxy}-ethoxy)-propyl]-2,6-dimethyl-1H-pyridin-4-ylidene}-malononitrile] |
| > 250 | 368 | CC1=CC(=C(C#N)C#N)C=C(C)N1C [1-N-methyl-4-dicyanomethylene-2,6-dimethyl-1,4-dihydropyridine] |
|  | 370 | CCCCN1C(C)=CC(=C(C#N)C#N)C=C1C [1-N-butyl-4-dicyanomethylene-2,6-dimethyl-1,4-dihydropyridine] |
|  | 372 | CC1=CC(=C(C#N)C#N)C=C(C)N1CCC(C)CC(C)(C)C (stereo not shown) [1-N-[3,5,5-trimethylhexyl]-4-dicyanomethylene-2,6-dimethyl-1,4-dihydropyridine] |
